Experiments:
[1] = target: 3CL^pro M165A (Severe acute respiratory syndrome coronavirus 2, UniProt P0DTD1, M3428A); type: cell-based, SARS-CoV-2
[2] = target: 3CL^pro Q299A (Severe acute respiratory syndrome coronavirus 2, UniProt P0DTD1, Q3562A); type: cell-based, SARS-CoV-2

C=C1C(=O)O[C@H]2[C@H]1CC/C(C)=C/CC[C@@]1(C)O[C@@H]21 [parthenolide]
inhibition in M165A compared to WT [1]: reduced
inhibition in Q299A compared to WT [2]: reduced
